Positions of bridges follow the written chain, without caps; N, C: chain ends. Residues, ends and D or L forms follow the SMILES beside them.
Experiments:
[1] = system: Fusarium culmorum (IMI 180420); test: Antifungal growth inhibition microplate assay (photospectrometry); type: cell-based
Outline: (§1)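 Spores (2×10^4/ml) in half-strength potato dextrose broth exposed to test solution, incubated in the dark at room temperature for about 72 h (96 h for V. dahliae). Growth by OD595 minus 30-min reading; IC50 is 50% and MIC 100% growth inhibition.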

[2] = Solubility of peptide in water; type: physicochemical; settings: dissolved at 2 mg/ml
Protocol: Peptides insoluble in water were dissolved in 50% acetonitrile: 50% acetonitrile was added to the peptide to give a stock solution which could be further diluted with water for fungal growth assays. Fungal growth was not affected by the presence of acetonitrile at the maximum concentration tested ([…] in the test well).
Split 15-mer peptides were dissolved in sterile milli-Q water to a final concentration of 5 mg/ml. MPS 15-mer peptides were dissolved to a final concentration between 4 and 10 mg/ml using acetonitrile as solvent for those peptides insoluble in water. Split 6-, 9- and 12-mer Rs-AFP 1 peptides were dissolved to a final concentration of 2 mg/ml in 20% acetonitrile. Split 6-, 9- and 12-mer Rs-AFP2 peptides were dissolved to a final concentration of 2 mg/ml in sterile water except for peptides numbers 1 (SEQ ID NO: 133) and 83 (SEQ ID NO: 35, amino acids 37-45) which were dissolved in 50% acetonitrile and numbers 3, 4, 5, 25, 47, 52, 64, 69, 70, 73, 74, 77, 85 and 93 which were dissolved in 20% acetonitrile. Both Rs-AFP1 and Rs-AFP2 peptides were freeze-dried just before weighing. […] The foregoing peptides have the following sequence identifications: […]

[3] = system: Botrytis cinerea (MUCL 30158); test: Antifungal growth inhibition microplate assay (photospectrometry); type: cell-based; settings: Rs-AFP2 15-mer MPS peptides; one test
Outline: as §1

[4] = system: Alternaria brassicicola (MUCL 20297); test: as above; type: cell-based; settings: Rs-AFP2 15-mer MPS peptides; one test
Outline: as §1

[5] = system: Verticillium dahliae (MUCL 19210); test: as above; type: cell-based; settings: Rs-AFP2 15-mer MPS peptides; one test; 96 hours
Outline: as §1

[6] = system: Ascophyta pisi (MUCL 30164); type: cell-based; settings: Rs-AFP2 15-mer MPS peptides; one test
Protocol: The following fungal strains were used: Alternaria brassicicola (MUCL 20297), Ascophyta pisi (MUCL 30164), Botrytis cinerea (MUCL 30158), Fusarium culmorum (IMI 180420) and Verticillium dahliae (MUCL 19210).
Fungi were grown on six cereal agar plates at room temperature and under white fluorescent light except for F culmorum and V dahliae which were grown in the dark. The duration of the spore harvest varied between 10 and 25 days depending on the strain. Spores were collected as follows. Five to ten ml of sterile milli-Q water was poured into each dish and the surface of the agar was rubbed with a sterile spatula to obtain a suspension containing mycelium and spores. This suspension was filtered through a sterile glasswool-plugged funnel and the filtrate containing the spores was collected in a sterile polypropylene centrifuge tube. The A brassicicola spores were suspended in sterile 0.1 Tween 20 (Merk, 822184) due to their hydrophobic nature. The spore suspensions were then washed twice by centrifugation at 2,400×g for 15 minutes and resuspended in a small volume of steril milli-Q water. The spore density was determined in a counting chamber and then adjusted to 4×10^7 spores per ml. Aliquots of the spore suspension were transferred to sterile microtubes and an equal volume of sterile 50% glycerol (Merck, 4091) was added to each tube so that a final spore suspension of 2×10^7 spores per ml in 25% glycerol was obtained. After careful mixing of the stock, the spore suspension was transferred in 100 μl aliquots to sterile microtubes and stored at −80° C.
Antifungal activity was measured by photospectrometry as described by Broekaert et al, (1990, FEMS Microbiol Lett, 69:55-60). Tests were performed by adding 20 μl of test solution and 80 μl of a fungal spore suspension (2×10^4 spores/ml) per well in a sterile flat-bottom 96-well microtiterplate. The spore suspension was prepared by diluting the stock spore suspension ([…] in 25% glycerol) 1:1000 in half-strength potato dextrose broth. A positive growth control consisting of eight wells containing 20 μl of sterile milli-Q water and 80 μl of the fungal spore suspension was included in each test. The microtiterplates were incubated (with the lid on) in an aerated place at room temperature and under conditions of darkness for all test organisms.
After 30 minutes of incubation (when the spores are settled on the well bottom) the optical density was measured in a microplate reader (Bio Rad 3550-UV) at 595 nm. Incubation of the microtiterplates continued until the optical density of the control microculture was between 0.250 and 0.500, which took approximately 72 hours (96 hours for V dahliae). Percentage of growth inhibition (% GI) was estimated as 100 times the ratio of the corrected absorbance of the control microculture minus the corrected absorbance of the test microculture over the corrected absorbance of the control microculture at 595 nm. The corrected absorbance values equal the absorbance at 595 nm of the culture measured after 72 or 96 hours minus the absorbance at 595 nm measured after 30 minutes.
% GI=[(Acontrol−Atest/Acontrol]×100
where Acontrol=(A72/96h−A30min)control
The IC50 value is defined as the concentration that gives a 50% growth inhibition after 72 or 96 hours of incubation. The minimum inhibitory concentration (MIC) corresponds to the minimum concentration that gives 100% growth inhibition after 72 or 96 hours incubation.

yeast = settings: at concentrations as high as 500 μg/ml; cited from earlier work
various fungi = settings: on various fungi; cited from earlier work
[7] = Table 14: 18-, 19-, 20-mer peptides with C-terminal Phe49, duplo

With `CC(=O)N[C@H]1CSSC[C@@H](C(N)=O)NC(=O)[C@H](CCCCN)NC(=O)[C@H](Cc2c[nH]cn2)NC(=O)[C@H](C)NC(=O)[C@@H]2CCCN2C(=O)[C@H](Cc2ccccc2)NC(=O)[C@H](C(C)C)NC(=O)[C@H](Cc2ccc(O)cc2)NC(=O)[C@H](CC(N)=O)NC1=O` [Loop 1, CNYVFPAHKC] (Ac-CNYVFPAHKC-NH2; disulfide 1-10) as the compound, how does the “ANTIFUNGAL ACTIVITY, MIC” value ([1]; Table 8: Loop 1 and Rs-AFP2 15-mer peptides, 1/16 PDB) read?
Its value is 2.5 µg/mL.

And the “ANTIFUNGAL ACTIVITY, IC50” value ([1]; Table 9: Loop 1 and Rs-AFP2 15-mer peptides, 1/16 PDB)?
The value was 4 µg/mL.

What about the solubility in water [2] of the same compound?
Its solubility in water is “completely soluble in water”.

Which results are given for “Rs-AFP2: antifungal protein 2 (plant defensin) from radish (Raphanus sativus) seeds; positive control (QKLCQRPSGTWSGVCGNNNACKNQCIRLEKARHGSCNYVFPAHKCICYFPC; listed as Raphanus sativus)”?
MIC VALUES F CULMORUM MPS ([1]; Rs-AFP2 15-mer MPS peptides, medium value of five tests): 5 to 10 µg/mL; MIC VALUES F CULMORUM Split ([1]; Rs-AFP2 15-mer split peptides (extra C-terminal beta-alanine), dilution 500-3.9 μg/ml, duplicate, MIC approximations): 10 µg/mL; MIC ([1]; Table 12: Rs-AFP2 15-mer peptides, ½ PDB): 3 µg/mL; MIC ([1]; Table 12: ½ PDB supplemented with 1 mM CaCl2): 6 µg/mL; MIC ([1]; Table 12: ½ PDB supplemented with 5 mM CaCl2): 6 µg/mL; MIC ([1]; Table 12: ½ PDB supplemented with 10 mM KCl): 3 µg/mL; MIC ([1]; Table 12: ½ PDB supplemented with 50 mM KCl): 3 µg/mL; MIC ([1]; Table 12: ½ PDB supplemented with 50 mM KCl, 1 mM CaCl2): 6 µg/mL; IC50 1/2 PDB ([1]; Table 13: linear β2-β3 loop MPS peptides, 2 × 10^4 spores/ml, duplo): 3.3 ± 0.0 µg/mL; IC50 SMF + pH5 ([1]; Table 13: linear β2-β3 loop MPS peptides, SMF+ (1 mM Ca2+, 50 mM K+) pH5, duplo): 5.2 ± 1.2 μg/ml; IC50 SMF + pH7 ([1]; Table 13: linear β2-β3 loop MPS peptides, SMF+ (1 mM Ca2+, 50 mM K+) pH7, duplo): 6.1 ± 1.3 μg/ml; IC50 SMF + pH5 [1, 7]: 7.2 ± 0.6 μg/ml; IC50 SMF + pH7 [1, 7]: 3.7 ± 0.6 μg/ml; IC50 ½ PDB ([1]; Table 14: 18-, 19-, 20-mer peptides with C-terminal Phe49, peptides single experiment): 2.5 ± 0.8 µg/mL; MIC VALUES B CINEREA [3]: >40 µg/mL; MIC VALUES A BRASSICICOLA [4]: 10 µg/mL; MIC VALUES V DAHLIAE [5]: 10 µg/mL; MIC VALUES A PISI [6]: 20 to 40 µg/mL; adverse effects on yeast (yeast): does not have adverse effects; activity relative to Rs-AFP1 (various fungi): two- to thirty-fold more active

From patent publication US20030226169A1, “DNA sequences encoding antifungal proteins” (priority 1995, published 2003)
